# Several values for one entry are separate records, joined by “and”; a condition that tells them apart may be missing. Equal values may be shown once. Entries after “also recorded” stand apart in the source; their conditions may differ. Read-outs that look alike come from different tables or passages of the source.
# What was measured:
# [1] = test system: dopamine metabolites HVA, DOPAC, and 3MT; assay: Dopamine metabolites in rat brain; format: in vivo; details: percentage of control; 3 mg/kg of chlorpromazine, 30 mg/kg clozapine or U-64,273A; Sprague-Dawley rat
# [2] = test system: 6-OH DA Turning; assay: Antagonism of amphetamine: 6-OH DA turning; format: in vivo; details: i.a. = inactive
# Description: (§1) Table 3. […] A. Behavioral effects in the rat. B. Behavioral effects in the monkey. C. Doses required to antagonize the indicated behavioral effects of amphetamine. D. Doses required to antagonize the indicated behavioral effects of apomorphine.
# [3] = test system: alpha-2; assay: Alpha-2 ligand binding, rat brain homogenates; details: 1μM, - indicates ligand was displaced
# [4] = test system: body temperature; assay: Hypothermia Test (effect on body temperature); format: in vivo, CF-1 male mice; details: either test: hypothermic or apomorphine antagonism
# Description: (§2) The Effect on Body Temperature (Hypothermia) Test and the Antagonism of Apomorphone-Induced Case Climbing (ACC), (Apomorphine Gnawing Test) are described on page 1398 of the publication, Journal of Medicinal Chemistry, Vol. 22, No. 11, pp. 1390-1398, in an article entitled "6-Aryl-4H-s-triazolo[4,3-a][1,4]benzodiazepines....Action" by J. B. Hester, Jr., et al.
# For the tests here, the Hypothermia Test procedure was run as follows:
# A group of four CF-1 male mice (18-22 g each) was injected intraperitoneally with the test compound prepared in 0.25 percent w/v methylcellulose in water solution. After 45 min, abdominal temperature of each mouse was measured using a thermister probe. A control group of four mice was treated with vehicle only and the temperature of the control group was taken in a similar manner. A compound was considered to have a significant effect on body temperature if the mean temperature in the test compound treated group deviated more than 3.5°C from the mean temperature of the parallel control group. Stimulants tend to elevate temperatures; depressants tend to lower body temperature.
# [5] = test system: Apomorphone-Induced Case Climbing; assay: Apomorphine antagonism (Apomorphine gnawing test; apomorphine-induced cage climbing); format: in vivo, Mouse; details: mouse
# Description: as §2, §1
# [6] = test system: LSD; assay: LSD ligand binding, rat brain homogenates; details: 1μM, - indicates ligand was displaced
# [7] = test system: locomotor activity; assay: Antagonism of amphetamine: locomotor activity; format: in vivo; details: i.a. = inactive
# Description: as §1
# [8] = test system: dopamine neurons; assay: Reversal of amphetamine depression of dopamine neuron firing rates; format: in vivo, rats
# Description: Table 2. Dopamine neuron firing rates were recorded according to published procedures and drugs were injected intravenously in chloral hydrate anesthetized rats. A. Ability of drugs to reverse the depression in firing rates of dopamine neurons by 1 to 2 mg/kg amphetamine. The maximum effect is the maximum amount of the amphetamine effect that was reversed, even when doses were increased beyond dose causing maximum effect. […] B. Depression of dopamine neurons by full agonist apomorphine and partial agonists TDHL, (-)PPP and U-64,273A. Maximum effect is maximum depression that could be realized even after increasing doses beyong the dose causing maximum effect. For both A and B, the ED50 is the dose causing 50% of the respective antagonistic (A) or agonist (B) effect.
# [9] = test system: Serotonin metabolites; assay: Serotonin metabolites in rat brain; format: in vivo, Sprague-Dawley rat; details: percentage of control; 1 mg/kg haloperidol, 10 mg/kg of clozapine, 30 mg/kg U-64,273A
# [10] = test system: Catalepsy; assay: Catalepsy; details: rat; i.a. = inactive
# Description: as §1
# [11] = test system: dopamine neurons; assay: Depression of dopamine neuron firing rates by the drug alone; format: in vivo, rats
# Description: Table 2. Dopamine neuron firing rates were recorded according to published procedures and drugs were injected intravenously in chloral hydrate anesthetized rats. A. Ability of drugs to reverse the depression in firing rates of dopamine neurons by 1 to 2 mg/kg amphetamine. The maximum effect is the maximum amount of the amphetamine effect that was reversed, even when doses were increased beyond dose causing maximum effect. An effect greater than 100% indicates excitation of the neuron beyond its' control rate whereas an effect less than 100% indicates partial agonist effects. B. Depression of dopamine neurons by full agonist apomorphine and partial agonists TDHL, (-)PPP and U-64,273A. Maximum effect is maximum depression that could be realized even after increasing doses beyong the dose causing maximum effect. For both A and B, the ED50 is the dose causing 50% of the respective antagonistic (A) or agonist (B) effect.
# [12] = test system: lethal dose of d-amphetamine; assay: Antagonism of amphetamine toxicity; format: in vivo
# Description: as §1
# [13] = test system: Emesis; assay: Antagonism of apomorphine emesis; format: in vivo
# Description: as §1
# [14] = test system: Stereotypy; assay: Antagonism of apomorphine stereotypy; format: in vivo; details: i.a. = inactive, listed as U-64273A
# Description: as §1
# [15] = test system: locomotor stimulation; assay: Locomotor stimulation in reserpinized mice, drug given by itself; format: in vivo
# Description: Consistant with its having a minor amount of agonist activity, the overall behavioral effects of U-64,273A conform to that of a weak DA antagonist (Table 3). […] When given by itself, U-64,273A affected locomotor activities in rodents in a way resembling both DA auto-receptor and postsynaptic receptor agonists.
# [16] = test system: Dopamine (3H-spiperone); assay: Receptor Binding Assay with 3H-spiperone (Dopamine Binding Assay), rat brain homogenate; details: 1μM; rat brain homogenates; - indicates ligand was displaced
# Description: The Receptor Binding Assay test for antipsychotic acitvity, was conducted as follows:
# A rat brain homogenate was prepared (1) by homogenizing a whole rat brain minus the cerebellum in 10 ml of 0.05M THAM-HC1, pH 7.4, using a Polytron at a setting of 7 for 30 sec. and centrifuging at 15,000xg for 10 min. The supernatant was discarded, the pellet resuspended in 10 ml of buffer using the Polytron for 10 sec., and the centrifugation repeated. The pellet was resuspended and diluted to 100 times the original tissue weight with buffer. Then 100 ml of the homogenate was diluted to 400 ml with buffer.
# The test drug was weighed out in a scintillation vial in a 1-5 mg ammount. They were dissolved by adding 0.5 ml of N-N-dimethylformamide of (DMF) and then 0.05 ml of 1M acetic acid, and vortexed to solubilize the drug. Then 10 ml of deionized and filtered water was added to the required volume. All compounds were tested at a single concentration of 1 uM.
# Samples were prepared for incubation using an ^3H-spiperone (antipsychotic).
# Incubation was conducted at 30°C for 30 min. on a shaking water bath. Every 30 sec., 24 tubes were filled with 1 ml of homogenate and put into the bath (this is done every 3 min. until all tubes are in the bath). Upon completion of the incubation procedure, the samples are filtered and rinsed.
# The punched filters are dropped into vials, which are in turn filled with ACS liquid scintillation fluid and capped and counted in a liquid scintillation counter. Counting data is recorded and analyzed.
# Results are expressed as percent decrease from control.
# [17] = test system: alpha-1; assay: Alpha-1 ligand binding, rat brain homogenates; details: 1μM, i.a. = inactive
# [18] = test system: Conditioned Avoidance; assay: Conditioned avoidance; format: in vivo; details: rat; (p) = partial activity, i.a. = inactive
# Description: as §1
# [19] = test system: muscarinic; assay: Muscarinic ligand binding, rat brain homogenates; details: 1μM, - indicates ligand was displaced
# [20] = test system: plasma prolactin; assay: Plasma prolactin; format: in vivo; details: cell marks this value (10), probably 10 mg/kg; Sprague-Dawley rat
# [21] = test system: Locomotor activity; assay: Antagonism of apomorphine locomotor activity in reserpinized mouse; format: in vivo
# Description: as §1
# [22] = test system: locomotor activity; assay: Antagonism of apomorphine locomotor activity in rat; format: in vivo; details: i.a. = inactive
# Description: as §1
# [23] = test system: Discrimination; assay: Antagonism of apomorphine discrimination; format: in vivo; details: (p) = partial activity
# Description: as §1
# [24] = dopamine neuron firing, Table 2
smiles,measurement,setting,value
"CNC1Cc2cccc3cccc(c23)C1 [U-64,273A, 2,3-dihydro-N-mono-methyl-lH-phenalen-2-amine]",3MT,[1],50%
same,DOPAC,[1],80%
same,"6-OH DA Turning, rat, dose required to antagonize amphetamine",[2],antagonized d-amphetamine
same,"alpha-2, percentage of ligand displaced",[3],-37.5%
same,active in either the hypothermic or the apomorphine antogonism test,[4],active
same,"Cage Climbing Mouse, dose required to antagonize apomorphine",[5],antagonized apomorphine
same,"LSD, percentage of ligand displaced",[6],-67.3%
same,"RAT locomotor activity, dose required to antagonize amphetamine",[7],i.a.
same,ED50,"[8]; Rattus norvegicus, Neuron, iv",0.005 mg/kg
same,Emax,"[8]; Rattus norvegicus, Neuron, iv, read-out: MAXIMUM EFFECT (per cent reversal)",69%
same,antagonist share,[8]; [24],70%
same,reversal of amphetamine's depression of DA neuronal firing (in words),"[8]; intravenous, anesthetized rats",potent in reversing the effect of d-amphetamine on nigral DA neuronal firing; also recorded: not quite complete
same,5HIAA,[9],76%
same,5HT,[9],128%
same,5HTP,[9],37%
same,"Catalepsy, active dose",[10],i.a.
same,ED50,"[11]; Rattus norvegicus, Neuron, iv",0.07 mg/kg
same,Emax,"[11]; Rattus norvegicus, Neuron, iv, read-out: MAXIMUM EFFECT (per cent decrease)",30%
same,agonist share,[11]; [24],30%
same,inhibition of DA neuronal firing when given alone (in words),"[11]; rat, in vivo",weakly inhibit
same,"Mouse Toxicity, dose required to antagonize amphetamine",[12],did not protect mice
same,"Dog Emesis, dose required to antagonize apomorphine",[13],antagonized apomorphine
same,"Rat Stereotypy, dose required to antagonize apomorphine",[14],i.a.
same,locomotor stimulation in reserpinized mice,[15],no locomotor stimulation
same,"spiperone, percentage of ligand displaced",[16],relatively weak and -46.2%
same,"alpha-1, percentage of ligand displaced",[17],i.a.
same,"Conditioned Avoidance, active dose",[18],suppressed conditioned avoidance behavior of rats with a limited efficacy
same,"muscarinic, percentage of ligand displaced",[19],-11.7%
same,Plasma Prolactin,[20],1%
same,"Locomotor activity, reserpinized mouse, 3 mg/kg (antag. of apomorphine)",[21],antagonized apomorphine
same,"Locomotor activity, reserpinized mouse, 3 mg/kg (antag. of apomorphine)",[21]; listed as U-64273A,47% antag.
same,"Locomotor activity, rat, dose required to antagonize apomorphine",[22],i.a.
same,"Monkey Discrimination, dose required to antagonize apomorphine",[23],antagonized apomorphine

# — patent EP0234113A1, “2,3-Dihydro-1H-phenalene-2-amino compounds as anti-psychotic drugs” (THE UPJOHN COMPANY, priority 1985, dated 1987)
